Laboratory results published in PubChem BioAssay (NCI).
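Exposure lasted 48 hours, with cells grown in 96-well plates and compounds tested at five concentrations. At the GI50, growth is halved. TGI denotes the concentration required for complete inhibition of growth.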 Where a SMILES comes first, the peptide text is derived from it. The star is where a group is joined. Boc = CC(C)(C)OC(=O)*; OBn = c1ccc(CO*)cc1

Columns and labels:
Test in all cases: NCI-60 cell line screen, 48 h
[1] = system: PC-3 prostate
[2] = system: HS 578T breast
[3] = system: SW-620 colon
[4] = system: IGROV1 ovarian
[5] = system: COLO 205 colon
[6] = system: BT-549 breast
[7] = system: HCC-2998 colon
[8] = system: LOX IMVI melanoma
[9] = system: NCI-H522 lung
[10] = system: HL-60(TB) leukemia

Row | SMILES | TGI [1] | TGI [2] | TGI [3] | TGI [4] | TGI [5] | TGI [6] | TGI [7] | TGI [8] | TGI [9] | TGI [10] | GI50 [5]
1 | CCc1ccc2[nH]c(O)c(-c3[nH]c4ccccc4c3N=O)c2c1 | 19.8 µM | 30.5 µM | 89.9 µM | 18.6 µM | 23.2 µM | 20.6 µM | 8.52 µM | 26.7 µM | 16 µM |  | 
2 | CCCCc1ccc(Nc2ncc3[nH]cnc3n2)cc1 |  | 33.9 µM | 42.6 µM | 39.6 µM | 36.7 µM | 52.8 µM | 37.8 µM | 37.6 µM | 55 µM | > 100 µM | 
3 | Cc1cn(CC2=NCC(C)(C)N2)c(=O)[nH]c1=O | > 100 µM | > 100 µM | > 100 µM | > 100 µM | > 100 µM | > 100 µM | > 100 µM | > 100 µM | > 100 µM |  | 
4 | C=C(CC[C@@H](C(=O)O)[C@H]1[C@H](O)C[C@@]2(C)C3=CC[C@@H](C(=C)C)[C@](C)(CCC(=O)O)C3=CC[C@]12C)C(C)C | 34.3 µM | 42.2 µM | 55.5 µM |  | 44.3 µM | 33 µM | 32.4 µM | 38.4 µM | 38.3 µM | 36 µM | 
5 | COc1ccc2c(c1)N=C1CSC(c3ccccc3Cl)N1C2 (stereo unspecified) | 58.5 µM | > 100 µM | 39.5 µM |  | 42.4 µM | > 100 µM | 18.1 µM | 23 µM | 51.4 µM | 4.76 µM | 
6 | CN(C)CCSC(=Nc1ccccc1)N1CCCCC1 |  |  | 31.6 µM | 29.8 µM | 28.8 µM |  |  | 30 µM | 29 µM | 49.5 µM | 
7 | C1CCC(OC2CSC2)OC1 (stereo unspecified) | > 100 µM | > 100 µM | > 100 µM |  | > 100 µM |  | > 100 µM | > 100 µM | > 100 µM |  | 
8 | O=C1Nc2cc([N+](=O)[O-])ccc2NC1/C(=N\Nc1ccccc1)C(O)c1cccc([N+](=O)[O-])c1 (stereo unspecified) |  |  | > 100 µM | > 100 µM | > 100 µM |  | > 100 µM | > 100 µM | > 100 µM | > 100 µM | 
9 | [N-]=[N+]=CC(=O)OCC1SCCCS1 | > 100 µM |  | > 100 µM | > 100 µM | > 100 µM | > 100 µM | > 100 µM | > 100 µM | > 100 µM | > 100 µM | 
10 | CC(NC(=O)C(NC(=O)OC(C)(C)C)C(C)C)C(=O)N1CCCC1C(=O)NCC(=O)NC(C(=O)NCC(=O)OCc1ccccc1)C(C)C (stereo unspecified) (Boc-VAPGVG-OBn; configuration not given here) | > 100 µM |  | > 100 µM | > 100 µM | > 100 µM |  | > 100 µM | > 100 µM | > 100 µM | > 100 µM | 
11 | O=c1[nH]nc(-c2ccccc2)n1/N=C/c1c(O)ccc2ccccc12 | > 100 µM | 50.4 µM | > 100 µM | > 100 µM | > 100 µM | > 100 µM | > 100 µM | > 100 µM | > 100 µM |  | 
12 | CC(=O)O[C@]12CCCC1C1(O)C(O)CCCC12 (stereo partly specified) |  |  | > 100 µM |  | > 100 µM |  |  | > 100 µM | > 100 µM | > 100 µM | 
13 | COC(=O)c1cc(C#N)[nH]c1-c1ccc(C)s1 | 46.4 µM |  | > 100 µM |  | > 100 µM | > 100 µM | > 100 µM |  | 89.7 µM |  | 
14 | O=c1c(C=Nc2ccc([N+](=O)[O-])cc2)c(O)n(-c2ccccc2)c(=O)n1-c1ccccc1 | > 100 µM | > 100 µM | > 100 µM | > 100 µM | > 100 µM | > 100 µM | > 100 µM | > 100 µM | > 100 µM |  | 
15 | Cc1cccc(C2=NC(C)(C)C(C)(C)N=C2c2cccc(C)n2)n1 |  |  | > 100 µM | > 100 µM | > 100 µM |  | > 100 µM | > 100 µM | > 100 µM | > 100 µM | 
16 | O=C1Cc2c([nH]c3ccc(Br)cc23)-c2ccccc2N1 | > 100 µM | > 100 µM |  | > 100 µM | > 100 µM |  | > 100 µM | > 100 µM | > 100 µM | > 53.8 µM | 
17 | Cc1nc2ccc(S(=O)(=O)O)cc2c(=O)n1-c1ccc(C(=O)NN2C(=O)C(Cl)C2c2ccccc2O)cc1 (stereo unspecified) | > 100 µM | > 100 µM | > 100 µM | > 100 µM | > 100 µM | > 100 µM |  | > 100 µM | > 100 µM | > 100 µM | 
18 | COc1cccc(Cc2c3cc(OC)ccc3cc[n+]2C)c1 |  |  | > 100 µM |  |  |  | > 100 µM |  | 92.3 µM |  | 
19 | Cc1cc(-c2nc3ccccc3s2)ccc1NC(=O)[C@H](C)N | 26.7 µM | 74.4 µM | 29 µM | 23.4 µM | 26.7 µM | 31.2 µM | 23.9 µM | > 100 µM | 75.8 µM |  | 
20 | O=C1/C(=C/c2ccccc2[N+](=O)[O-])N=C(c2ccccc2)N1C1Nc2cc3c(cc2S1)NC(N1C(=O)/C(=C/c2ccccc2[N+](=O)[O-])N=C1c1ccccc1)S3 (stereo unspecified) | > 100 µM | > 100 µM | > 100 µM | > 100 µM |  | > 100 µM | 38.1 µM | > 100 µM | 77.9 µM | 96.2 µM | 
21 | Oc1[nH]c2ccccc2c1N=Nc1nc(-c2ccc(Cl)c(Cl)c2)cs1 | > 100 µM |  | > 100 µM | > 100 µM | > 100 µM |  | > 100 µM | > 100 µM |  | 0.718 µM | 
22 | O=C(N/N=C/c1cc(Cl)cc(Cl)c1[O-])c1ccccc1O.O=C(N/N=C/c1cc(Cl)cc(Cl)c1[O-])c1ccccc1O.[Ni+2] |  |  | 1.97 µM | 1.74 µM | 11.6 µM |  | 1.56 µM | 1.81 µM | 0.823 µM | 0.472 µM | 0.794 µM
23 | COC(=O)/C=C1\CCC(C)(C(=O)NS(=O)(=O)c2ccc(C)cc2)C1(C)C (stereo unspecified) | > 100 µM |  | > 100 µM | > 100 µM | > 100 µM | > 100 µM | > 100 µM | > 100 µM | > 100 µM | > 100 µM | 
24 | C=C(C)C(=O)[C@@]12C(=O)[C@@H](C)CC[C@H]1[C@H](C)C[C@@H]2C=C(C)C | 59.4 µM |  | 44 µM | 64.5 µM | 41.5 µM |  | 28 µM | 37 µM | 27.7 µM |  | 
25 | O=C(c1ccccc1)c1ccc2nc(-c3c(Cl)c(Cl)c(Cl)c(Cl)c3C(=O)N/N=C/c3ccccc3)[nH]c2c1 | > 100 µM | > 100 µM | > 100 µM | > 100 µM | 39.3 µM | > 100 µM |  | > 100 µM | 55.3 µM | 73 µM | 
